Source: patent publication US8134015B2, “Compound inhibiting in vivo phosphorous transport and medicine containing the same” (Kyowa Hakko Kirin Co., Ltd., priority 2003, dated 2012)

The molecules below were run against T1, rat NaPi-2b (Rattus norvegicus, UniProt Q9JJ09) (assay: Sodium-dependent phosphate uptake of Xenopus oocytes which expressed NaPi-2b (32P)). Conditions: Xenopus oocytes expressing rat NaPi-2b, 32P radioactive phosphorus; read-out: IC50 (phosphate uptake inhibitory activity).
T1 construct: expressed in transfected cells; host or cells: Xenopus oocytes injected with cRNA
T1 sequence (Q9JJ09 1-695): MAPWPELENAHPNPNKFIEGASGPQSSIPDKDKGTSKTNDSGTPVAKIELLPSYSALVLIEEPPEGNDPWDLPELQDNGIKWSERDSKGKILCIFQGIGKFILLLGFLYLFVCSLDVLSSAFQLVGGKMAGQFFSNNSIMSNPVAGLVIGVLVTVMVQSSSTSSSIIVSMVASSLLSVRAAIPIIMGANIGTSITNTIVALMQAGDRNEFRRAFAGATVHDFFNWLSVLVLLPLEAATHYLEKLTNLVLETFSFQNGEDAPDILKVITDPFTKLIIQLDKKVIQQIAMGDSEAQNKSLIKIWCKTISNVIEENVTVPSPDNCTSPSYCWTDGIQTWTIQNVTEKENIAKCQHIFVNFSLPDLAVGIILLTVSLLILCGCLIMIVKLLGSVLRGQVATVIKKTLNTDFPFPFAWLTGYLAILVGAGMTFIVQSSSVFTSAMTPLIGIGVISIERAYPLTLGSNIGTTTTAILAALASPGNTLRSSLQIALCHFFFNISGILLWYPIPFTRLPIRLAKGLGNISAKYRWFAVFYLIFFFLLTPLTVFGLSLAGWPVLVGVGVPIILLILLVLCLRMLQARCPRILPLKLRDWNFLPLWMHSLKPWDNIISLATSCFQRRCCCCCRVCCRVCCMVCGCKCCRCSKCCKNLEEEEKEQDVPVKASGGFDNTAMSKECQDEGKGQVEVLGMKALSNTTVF
Format: cell-based
Outline: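 Rat small-intestine NaPi-2b cRNA injected into Xenopus oocytes, expressed for 2 days. Sodium-dependent phosphate uptake measured with 32P; % inhibition at 300 and 100 μM taken from the same inhibition curve.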
In the case of Cc1ccc(/C=N/NC(=O)c2c(C)csc2NC(=O)c2cccc(CSc3nc[nH]n3)c2)cc1C [Compound 551, N-[3-(3,4-Dimethyl-benzylidene-hydrazinocarbonyl)-4-methyl-thiophen-2-yl]-3-(1H-[1,2,4]triazol-3-ylsulfanylmethyl)-benzamide], the IC50 is reported as 0.47 µM. Cc1ccc(/C=N/NC(=O)c2c(C)csc2NC(=O)c2cccc(CSc3nc[nH]n3)c2)cc1 [Compound 552, N-[4-Methyl-3-(4-methyl-benzylidene-hydrazinocarbonyl)-thiophen-2-yl]-3-(1H-[1,2,4]triazol-3-ylsulfanylmethyl)-benzamide] gave an IC50 of 2.63 µM. Work on Cc1csc(NC(=O)c2cccc(CSc3nc[nH]n3)c2)c1C(=O)N/N=C/c1ccc(F)cc1 [Compound 553, N-[3-(4-Fluoro-benzylidene-hydrazinocarbonyl)-4-methyl-thiophen-2-yl]-3-(1H-[1,2,4]triazol-3-ylsulfanylmethyl)-benzamide] yielded an IC50 of 2.8 µM. In the case of Cc1csc(NC(=O)c2cccc(CSc3nc[nH]n3)c2)c1C(=O)N/N=C/c1cccc(F)c1 [Compound 554, N-[3-(3-Fluoro-benzylidene-hydrazinocarbonyl)-4-methyl-thiophen-2-yl]-3-(1H-[1,2,4]triazol-3-ylsulfanylmethyl)-benzamide], the IC50 is reported as 1.46 µM.

Same assay, conditions: phosphate uptake, oocytes expressing rat NaPi-2b; 300 μM, determined from inhibition curve
Molecule CCN(CC)CCN(C)Cc1cccc(C(=O)Nc2c(C)csc2C(=O)N/N=C/c2ccc(F)cc2)c1 [Compound 528, 3-{[(2-Diethylamino-ethyl)-methyl-amino]-methyl}-N-[2-(4-fluoro-benzylidene-hydrazinocarbonyl)-4-methyl-thiophen-3-yl]-benzamide] has an inhibition at 300 µM of 58.4%. CCN(CC)CCN(C)Cc1cccc(C(=O)Nc2c(C)csc2C(=O)N/N=C/c2cccc(F)c2)c1 [Compound 529, 3-{[(2-Diethylamino-ethyl)-methyl-amino]-methyl}-N-[2-(3-fluoro-benzylidene-hydrazinocarbonyl)-4-methyl-thiophen-3-yl]-benzamide] showed an inhibition at 300 µM of 81%. CCN(CC)CCN(C)Cc1cccc(C(=O)Nc2c(C)csc2C(=O)N/N=C/c2ccc(OC)cc2)c1 [Compound 530, 3-{[(2-Diethylamino-ethyl)-methyl-amino]-methyl}-N-[2-(4-methoxy-benzylidene-hydrazinocarbonyl)-4-methyl-thiophen-3-yl]-benzamide] gave an inhibition at 300 µM of 38.2%. COc1ccc(/C=N/NC(=O)c2scc(C)c2NC(=O)c2cccc(CN3CCC(N4CCCCC4)CC3)c2)cc1 [Compound 531, 3-[1,4′]Bipiperidinyl-1′-ylmethyl-N-[2-(4-methoxy-benzylidene-hydrazinocarbonyl)-4-methyl-thiophen-3-yl]-benzamide] was tested, and the inhibition at 300 µM was 35.7%. Molecule Cc1ccc(/C=N/NC(=O)c2scc(C)c2NC(=O)c2cccc(CN3CCN(CCO)CC3)c2)cc1C [Compound 532, N-[2-(3,4-Dimethyl-benzylidene-hydrazinocarbonyl)-4-methyl-thiophen-3-yl]-3-[4-(2-hydroxy-ethyl)-piperazin-1-ylmethyl]-benzamide] has an inhibition at 300 µM of 76%. For Cc1ccc(/C=N/NC(=O)c2scc(C)c2NC(=O)c2cccc(CN3CCN(CCO)CC3)c2)cc1 [Compound 533, 3-[4-(2-Hydroxy-ethyl)-piperazin-1-ylmethyl]-N-[4-methyl-2-(4-methyl-benzylidene-hydrazinocarbonyl)-thiophen-3-yl]-benzamide], the inhibition at 300 µM was 36.9%. With Cc1csc(C(=O)N/N=C/c2ccc(F)cc2)c1NC(=O)c1cccc(CN2CCN(CCO)CC2)c1 [Compound 534, N-[2-(4-Fluoro-benzylidene-hydrazinocarbonyl)-4-methyl-thiophen-3-yl]-3-[4-(2-hydroxy-ethyl)-piperazin-1-ylmethyl]-benzamide] the inhibition at 300 µM was 43.8%. Work on Cc1csc(C(=O)N/N=C/c2cccc(F)c2)c1NC(=O)c1cccc(CN2CCN(CCO)CC2)c1 [Compound 535, N-[2-(3-Fluoro-benzylidene-hydrazinocarbonyl)-4-methyl-thiophen-3-yl]-3-[4-(2-hydroxy-ethyl)-piperazin-1-ylmethyl]-benzamide] yielded an inhibition at 300 µM of 53%. With CCN(CC)CCNCc1cccc(C(=O)Nc2c(C)csc2C(=O)N/N=C/c2ccc(C)c(C)c2)c1 [Compound 536, 3-[(2-Diethylamino-ethylamino)-methyl]-N-[2-(3,4-dimethyl-benzylidene-hydrazinocarbonyl)-4-methyl-thiophen-3-yl]-benzamide] the inhibition at 300 µM was 88.2%. CCN(CC)CCNCc1cccc(C(=O)Nc2c(C)csc2C(=O)N/N=C/c2ccc(C)cc2)c1 [Compound 537, 3-[(2-Diethylamino-ethylamino)-methyl]-N-[4-methyl-2-(4-methyl-benzylidene-hydrazinocarbonyl)-thiophen-3-yl]-benzamide] was tested, and the inhibition at 300 µM was 82%. CCN(CC)CCNCc1cccc(C(=O)Nc2c(C)csc2C(=O)N/N=C/c2cccc(F)c2)c1 [Compound 538, 3-[(2-Diethylamino-ethylamino)-methyl]-N-[2-(3-fluoro-benzylidene-hydrazinocarbonyl)-4-methyl-thiophen-3-yl]-benzamide] showed an inhibition at 300 µM of 30.3%. For CCN(CC)CCNCc1cccc(C(=O)Nc2c(C)csc2C(=O)N/N=C/c2ccc(Cl)c(C(F)(F)F)c2)c1 [Compound 539, N-[2-(4-Chloro-3-trifluoromethyl-benzylidene-hydrazinocarbonyl)-4-methyl-thiophen-3-yl]-3-[(2-diethylamino-ethylamino)-methyl]-benzamide], the inhibition at 300 µM was 88.4%. For Cc1ccc(/C=N/NC(=O)c2scc(C)c2NC(=O)c2cccc(CN(CC(C)O)CC(C)O)c2)cc1 (stereo not drawn) [Compound 540, 3-{[Bis-(2-hydroxy-propyl)-amino]-methyl}-N-[4-methyl-2-(4-methyl-benzylidene-hydrazinocarbonyl)-thiophen-3-yl]-benzamide], the inhibition at 300 µM was 38.4%. Cc1ccc(/C=N/NC(=O)c2scc(C)c2NC(=O)c2cccc(CN3CCC(O)CC3)c2)cc1C [Compound 541, N-[2-(3,4-Dimethyl-benzylidene-hydrazinocarbonyl)-4-methyl-thiophen-3-yl]-3-(4-hydroxy-piperidin-1-ylmethyl)-benzamide] was tested, and the inhibition at 300 µM was 32.2%. For Cc1csc(C(=O)N/N=C/c2cccc(F)c2)c1NC(=O)c1cccc(CN2CCC(O)CC2)c1 [Compound 542, N-[2-(3-Fluoro-benzylidene-hydrazinocarbonyl)-4-methyl-thiophen-3-yl]-3-(4-hydroxy-piperidin-1-ylmethyl)-benzamide], the inhibition at 300 µM was 41.1%. Work on COc1ccc(/C=N/NC(=O)c2scc(C)c2NC(=O)c2cccc(CN3CCC(O)CC3)c2)cc1 [Compound 543, 3-(4-Hydroxy-piperidin-1-ylmethyl)-N-[2-(4-methoxy-benzylidene-hydrazinocarbonyl)-4-methyl-thiophen-3-yl]-benzamide] yielded an inhibition at 300 µM of 30.2%. Cc1ccc(CNNC(=O)c2cc(Br)ccc2NC(=O)c2ccccn2)cc1 [Compound 544, Pyridin-2-carboxylic acid {4-bromo-2-[N′-(4-methyl-benzyl)-hydrazinocarbonyl]-phenyl}-amide] showed an inhibition at 300 µM of 60%. In the case of Cc1ccc(CNNC(=O)c2ccccc2NC(=O)c2ccncc2)cc1 [Compound 545, N-{2-[N′-(4-Methyl-benzyl)-hydrazinocarbonyl]-phenyl}-isonicotinamide], the inhibition at 300 µM is reported as 88.8%. For O=C(Nc1ccc(Br)cc1C(=O)NNCc1ccc(Cl)c(C(F)(F)F)c1)c1cccc(CSCCO)c1 [Compound 546, N-{4-Bromo-2-[N′-(4-chloro-3-trifluoromethyl-benzyl)-hydrazinocarbonyl]-phenyl}-3-(2-hydroxy-ethylsulfanylmethyl)-benzamide], the inhibition at 300 µM was 85.2%. For Cc1ccc(CNNC(=O)c2cc(Cl)ccc2NC(=O)c2cccc(CSCCO)c2)cc1 [Compound 547, N-{4-Chloro-2-[N′-(4-methyl-benzyl)-hydrazinocarbonyl]-phenyl}-3-(2-hydroxy-ethylsulfanylmethyl)-benzamide], the inhibition at 300 µM was 66.6%. Molecule COc1ccc(C(=O)Nc2ccc(Br)cc2C(=O)NNCc2ccc(C)c(C)c2)cc1OC [Compound 548, N-{4-Bromo-2-[N′-(3,4-dimethyl-benzyl)-hydrazinocarbonyl]-phenyl}-3,4-dimethoxy-benzamide] has an inhibition at 300 µM of 85.7%. O=C(Nc1ccc(Cl)cc1C(=O)N/N=C/c1cccc(F)c1)c1cccc(CN(CCO)CCO)c1 [Compound 549, 3-{[Bis-(2-hydroxy-ethyl)-amino]-methyl}-N-[4-chloro-2-(3-fluoro-benzylidene-hydrazinocarbonyl)-phenyl]-benzamide] gave an inhibition at 300 µM of 85.1%. O=C(Nc1ccc(Cl)cc1C(=O)N/N=C/c1ccc(F)cc1)c1cccc(CN(CCO)CCO)c1 [Compound 550, 3-{[Bis-(2-hydroxy-ethyl)-amino]-methyl}-N-[4-chloro-2-(4-fluoro-benzylidene-hydrazinocarbonyl)-phenyl]-benzamide] gave an inhibition at 300 µM of 78.9%.
